Consider eight molecules from US4284619A, “Esters useful as brain imaging agents” (Medi-Physics, Inc., priority 1978, dated 1981).

Data set [1] is described as follows: Biodistribution bioassay of I-123-labeled compounds in rats, 5 minutes after tail vein injection (blood, brain, heart, stomach activity). The class given is in vivo, Female Sprague-Dawley rats. The note with it: rat; for Percent Dose/g. at 5 min. Blood / Percent Dose/g. at 5 min. Brain / Percent Dose/g. at 5 min. Heart: 0.05 to 1.0 mCi, I-123-labeled. Here is the method: Bioassays were performed utilizing compounds from the foregoing examples labeled with I-123 in accordance with the method described in Example 11. Female Sprague-Dawley rats weighing approximately 150 g. were anesthetized with sodium pentobarbital and were injected in a tail vein with from 0.05 to 1.0 mCi (in a volume of 0.2 to 0.5 ml) of the I-123-labeled compound. Two specimens were utilized for each test.
The animals were sacrificed at 5 minutes post injection, the tails discarded and the amount of activity in various organs determined. Each organ was counted at a standardized geometry with a thallium iodide-activated sodium iodide crystal scintillation counter adjusted for the 159 keV emission of I-123. The organs were also weighed to one thousandth of a gram and the activity calculated as a percent of administered dose per gram organ weight.
The ratio of brain-to-blood activity was calculated as a percent of administered dose per gram. The important determinations are the amount of activity in the brain and the brain/blood ratio. The amount of activity in the stomach is related to loss of the I-123-label. For comparative purposes, I-123 antipyrine was utilized as a standard.

The conditions of data set [2]: prior art brain imaging agent; cited from earlier work.
[3] abbreviates: i.v. tail vein, ratio of percent dose per gram.
Where [4] appears, read: i.v. tail vein, stomach, related to loss of the I-123-label.

On to `CCOC(=O)c1ccccc1[123I]` [Example 2, ethyl o-iodobenzoate], for which, in data set [1] (in vivo, iv), the “Percent Dose in Stomach” value is 0.81 Percent Dose, the “Ratio Brain/Blood” value is listed as 0.14 and the “Ratio Heart/Blood” value worked out at 0.59.

On to `O=C(Oc1ccccc1)c1ccccc1[123I]` [Example 6, phenyl o-iodobenzoate], for which, in data set [1] (in vivo, iv), the “Percent Dose in Stomach” value was 0.92 Percent Dose, the “Ratio Brain/Blood” value is on record as 0.20 and the “Ratio Heart/Blood” value was 0.60.

For `O=C(OCc1ccccc1)c1ccccc1[123I]` [Example 7, benzyl o-iodobenzoate], in data set [1] (in vivo, iv), the “Percent Dose in Stomach” value was found to be 1.46 Percent Dose, the “Ratio Brain/Blood” value is recorded as 0.25 and the “Ratio Heart/Blood” value amounted to 0.65.

For `O=C(Oc1cccc(O)c1O)c1ccccc1[123I]` [Example 8, pyrogallyl o-iodobenzoate], in data set [1] (in vivo, iv), the “Percent Dose in Stomach” value is given as 0.77 Percent Dose, the “Ratio Brain/Blood” value worked out at 0.08 and the “Ratio Heart/Blood” value stood at 0.51.

For the molecule `CCCCCCCCCCCCCCCCCCOC(=O)c1ccccc1[123I]` [Example 10, octadecyl o-iodobenzoate], in data set [1] (in vivo, iv), the “Percent Dose in Stomach” value is on record as 0.92 Percent Dose, the “Ratio Brain/Blood” value was 0.12 and the “Ratio Heart/Blood” value is 0.53.

In the case of `Cc1c([123I])c(=O)n(-c2ccccc2)n1C` [^I 123-iodoantipyrine, 4-iodoantipyrine, reference compound], the “Percent Dose in Stomach” value in data set [1] (in vivo, iv) was found to be 2.23 Percent Dose. For the same molecule, the “loss of the iodine label in the brain” value in data set [2] is “significant loss of the iodine label in the brain”.

Consider glyceryl o-iodobenzoate [Example 5], for which, in data set [1] (i.v. tail vein), the “Percent Dose/g. at 5 min. Blood” value was found to be 1.67 Percent Dose/g, the “Percent Dose/g. at 5 min. Brain” value was 0.73 Percent Dose/g and the “Percent Dose/g. at 5 min. Heart” value was determined as 1.12 Percent Dose/g. In data set [1] (setting [3]), the “Ratio Brain/Blood” value is 0.43 and the “Ratio Heart/Blood” value was determined as 0.67. In data set [1] (setting [4]), the “Percent Dose in Stomach” value turned out to be 0.79 Percent Dose.

On to pyridoxyl o-iodobenzoate [Example 9], for which, in data set [1] (i.v. tail vein), the “Percent Dose/g. at 5 min. Blood” value is on record as 1.61 Percent Dose/g, the “Percent Dose/g. at 5 min. Brain” value was found to be 0.31 Percent Dose/g and the “Percent Dose/g. at 5 min. Heart” value came out at 1.02 Percent Dose/g. Further, in data set [1] (setting [3]), the “Ratio Brain/Blood” value is recorded as 0.19 and the “Ratio Heart/Blood” value is given as 0.63. Moreover, in data set [1] (setting [4]), the “Percent Dose in Stomach” value is 0.93 Percent Dose.
